Among the test systems are 786-0; A498; BT-549; CAKI-1; EKVX; HCT-116; HT-29; IGROV-1; MCF7; MOLT-4; NCI-H226; NCI-H23; NCI-H522; OVCAR-4; RPMI-8226; SK-MEL-28; SNB-75; TK-10; U-251; OVCAR-8.
Holding throughout (test): NCI-60 cell line screen, 48 h

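Assay format: 96-well plates, 48-hour exposure. The concentration for 50% growth inhibition is given as GI50.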 Activity calls are given as the source filed them. Rule as the data show it: active = GI50 up to about 1.1 µM and inactive = higher.

With `CN1CCN(C2=CC(=O)c3c(O)ccc(O)c3C2=O)CC1`, the GI50 with 786-0 was 1.95 µM (inactive); in the experiment with A498 it was 1.54 µM (inactive); in the experiment with BT-549, 1.76 µM (inactive); in the experiment with CAKI-1, 1.6 µM (inactive); in the experiment on EKVX it was 1.86 µM (inactive); in the experiment with HCT-116, 0.208 µM (active). The GI50 with HT-29 was 0.302 µM (active); in the experiment on IGROV-1, 1.64 µM (inactive); in the experiment with MCF7, 0.319 µM (active); in the experiment with MOLT-4, 1.01 µM (active); in the experiment on NCI-H226 it was 1.59 µM (inactive); in the experiment on NCI-H23, 1.4 µM (inactive). Moreover, the GI50 in the experiment on NCI-H522 was 1.71 µM (inactive); with OVCAR-4, 2.02 µM (inactive); with RPMI-8226, 1.37 µM (inactive); with SK-MEL-28, 1.64 µM (inactive); in the experiment with SNB-75 it was 1.61 µM (inactive); in the experiment with TK-10, 2.74 µM (inactive). For the same compound, the GI50 in the experiment with U-251 was 1.61 µM (inactive).

Consider `COc1cc2c3c(c1OC)-c1cc4c(cc1CC3(C#N)N(C(=O)c1ccccc1)CC2)OCO4` (stereo not drawn), for which the GI50 was 29.1 µM (inactive) in the experiment on 786-0; 41.1 µM (inactive) in the experiment with A498; > 100 µM (inactive) in the experiment with BT-549; 37.9 µM (inactive) with CAKI-1; 45.8 µM (inactive) in the experiment on EKVX; 31.9 µM (inactive) in the experiment with HCT-116. For the same compound, the GI50 in the experiment on HT-29 is > 100 µM (inactive); with IGROV-1, 33 µM (inactive); with MCF7, 91.6 µM (inactive); in the experiment with MOLT-4, 68.4 µM (inactive); in the experiment with NCI-H226, 37.8 µM (inactive); in the experiment with NCI-H23, 25.5 µM (inactive). Also, the GI50 in the experiment with NCI-H522 was 28.2 µM (inactive); in the experiment with OVCAR-4, 15.3 µM (inactive); with OVCAR-8 it was 20.7 µM (inactive); with RPMI-8226 it was > 87.5 µM (inactive); with SK-MEL-28, 59.7 µM (inactive); in the experiment with SNB-75, 9.12 µM (inactive). In addition, the GI50 is 36 µM (inactive) in the experiment with TK-10 and 21.1 µM (inactive) in the experiment on U-251.

Regarding `Cc1c2c(C(N)=O)nccc2c(C)c2c1c1ccccc1n2Cc1ccccc1`, the GI50 was 3.86 µM (inactive) in the experiment on 786-0; 21 µM (inactive) in the experiment with A498; 29.3 µM (inactive) in the experiment on BT-549; 17.6 µM (inactive) in the experiment on CAKI-1; 43.6 µM (inactive) in the experiment with EKVX; 10 µM (inactive) in the experiment with HCT-116. The GI50 in the experiment with HT-29 was 18.8 µM (inactive); in the experiment on IGROV-1, 16.2 µM (inactive); in the experiment on MCF7, 37 µM (inactive); in the experiment with MOLT-4 it was 32.7 µM (inactive); in the experiment on NCI-H226 it was 23.7 µM (inactive); with NCI-H23 it was 23.1 µM (inactive). Further, the GI50 with NCI-H522 was 23.7 µM (inactive); in the experiment on OVCAR-4, 2.61 µM (inactive); in the experiment on OVCAR-8 it was 10.6 µM (inactive); with RPMI-8226, 26.8 µM (inactive); with SK-MEL-28 it was 54.5 µM (inactive); in the experiment with SNB-75, 5.33 µM (inactive). Besides, the GI50 with TK-10 is 15.9 µM (inactive); in the experiment with U-251, 9.04 µM (inactive).

On to `CCOC(=O)Cc1nc2c(O)ncnc2n1C1OC(COC(C)=O)C(OC(C)=O)C1OC(C)=O` (stereo not drawn), for which the GI50 in the experiment on 786-0, with A498, in the experiment with BT-549, with CAKI-1, with EKVX and in the experiment on HCT-116 was > 100 µM (inactive) throughout. For the same compound, the GI50 in the experiment with HT-29, in the experiment with IGROV-1, with MCF7, in the experiment on MOLT-4, with NCI-H226 and in the experiment with NCI-H23 was > 100 µM (inactive) in each case. Also, the GI50 with NCI-H522, in the experiment with OVCAR-4, in the experiment on OVCAR-8, with RPMI-8226, with SK-MEL-28 and in the experiment with SNB-75 was > 100 µM (inactive) in each case. Further, the GI50 with TK-10 and with U-251 was > 100 µM (inactive) throughout.

`Cc1ccc([N+](=O)[O-])c2c(NCCCN(C)C)ccnc12`: the GI50 in the experiment with 786-0 is 44.8 µM (inactive); with A498 it was 61.4 µM (inactive); in the experiment with BT-549, > 100 µM (inactive); in the experiment on CAKI-1, > 89.5 µM (inactive); in the experiment on EKVX it was > 49 µM (inactive); in the experiment on HCT-116, 45.6 µM (inactive). Further, the GI50 was 31 µM (inactive) in the experiment on HT-29; 30 µM (inactive) with IGROV-1; 39.4 µM (inactive) with MCF7; > 100 µM (inactive) in the experiment on MOLT-4; > 100 µM (inactive) in the experiment with NCI-H226; 28.2 µM (inactive) with NCI-H23. Besides, the GI50 was 19.6 µM (inactive) with NCI-H522; 22.4 µM (inactive) in the experiment on OVCAR-4; 98.4 µM (inactive) in the experiment with OVCAR-8; > 100 µM (inactive) in the experiment with RPMI-8226; > 100 µM (inactive) with SK-MEL-28; 33.7 µM (inactive) in the experiment with SNB-75. Also, the GI50 is > 100 µM (inactive) in the experiment with TK-10 and 87.3 µM (inactive) in the experiment with U-251.

As for `COc1cc(/C=C/C(=N\NC(=S)NN)c2sc(NNC(C)=O)nc2C)ccc1O`, the GI50 with 786-0, in the experiment on A498, with BT-549, with CAKI-1, in the experiment on EKVX and in the experiment with HCT-116 was > 100 µM (inactive) throughout. The GI50 in the experiment on HT-29, in the experiment on IGROV-1, in the experiment with MCF7, in the experiment with MOLT-4, with NCI-H226 and in the experiment with NCI-H23 was > 100 µM (inactive) throughout. For the same compound, the GI50 in the experiment on NCI-H522, with OVCAR-4, in the experiment on OVCAR-8, in the experiment with RPMI-8226, with SK-MEL-28 and with SNB-75 was > 100 µM (inactive) throughout. The GI50 with TK-10 and in the experiment with U-251 was > 100 µM (inactive) in each case.

For `C[C@]12CC[C@H](O)CC1=CC[C@@H]1[C@@H]2CC[C@]2(C)c3nc(Cl)ccc3C[C@@H]12`, the GI50 in the experiment on 786-0 is 30.1 µM (inactive); in the experiment on A498 it was > 100 µM (inactive); with BT-549, 26.1 µM (inactive); in the experiment on CAKI-1 it was > 100 µM (inactive); in the experiment with EKVX it was 11.4 µM (inactive); in the experiment with HCT-116 it was 47 µM (inactive). The GI50 in the experiment on HT-29 is 10.9 µM (inactive); in the experiment with IGROV-1 it was 61.5 µM (inactive); in the experiment with MCF7, > 64.7 µM (inactive); in the experiment on MOLT-4, 8.45 µM (inactive); in the experiment with NCI-H226, > 100 µM (inactive); in the experiment on NCI-H23 it was 24.6 µM (inactive). For the same compound, the GI50 with NCI-H522 was 49.8 µM (inactive); in the experiment on OVCAR-4, > 53.7 µM (inactive); in the experiment on OVCAR-8, 62.5 µM (inactive); with RPMI-8226, 39.4 µM (inactive); with SK-MEL-28 it was > 64.1 µM (inactive); in the experiment with SNB-75 it was 25 µM (inactive). Moreover, the GI50 in the experiment with TK-10 was > 56.8 µM (inactive); in the experiment with U-251, 31 µM (inactive).

Take `CCCC(O)c1cn(C(NC(=O)c2ccccc2)P(=O)(OCC)OCC)nn1` (stereo not drawn): the GI50 in the experiment on 786-0, with A498, in the experiment on BT-549, in the experiment on CAKI-1, in the experiment with EKVX and in the experiment on HCT-116 was > 100 µM (inactive) each time. In addition, the GI50 with HT-29, with IGROV-1, with MCF7, in the experiment with MOLT-4, with NCI-H226 and in the experiment with NCI-H23 was > 100 µM (inactive) throughout. For the same compound, the GI50 in the experiment on NCI-H522, in the experiment with OVCAR-4, in the experiment on OVCAR-8, with RPMI-8226, in the experiment on SK-MEL-28 and in the experiment on SNB-75 was > 100 µM (inactive) throughout. The GI50 in the experiment with TK-10 and with U-251 was > 100 µM (inactive) each time.

On to `CC(O)(CCCCCl)c1nc2ccccc2s1` (stereo not drawn), for which the GI50 in the experiment with 786-0 was > 100 µM (inactive); in the experiment with A498, > 100 µM (inactive); in the experiment on BT-549, 67.9 µM (inactive); in the experiment with CAKI-1, > 100 µM (inactive); in the experiment on EKVX, 52.4 µM (inactive); with HCT-116 it was 47 µM (inactive). In addition, the GI50 was 65.9 µM (inactive) in the experiment on HT-29; > 100 µM (inactive) with IGROV-1; 71.8 µM (inactive) in the experiment on MCF7; 50.7 µM (inactive) with MOLT-4; > 100 µM (inactive) with NCI-H226; > 100 µM (inactive) in the experiment with NCI-H23. Moreover, the GI50 in the experiment on NCI-H522 is > 100 µM (inactive); with OVCAR-4, > 100 µM (inactive); in the experiment on OVCAR-8 it was > 100 µM (inactive); with RPMI-8226, 97.5 µM (inactive); with SK-MEL-28, > 100 µM (inactive); with SNB-75 it was > 100 µM (inactive). Further, the GI50 in the experiment with TK-10 is > 100 µM (inactive); in the experiment on U-251 it was 85.5 µM (inactive).

In the case of `C[C@@H]1CC[C@H]2[C@H](C)C(OC3O[C@@H]4O[C@@]5(C)CC[C@H]6[C@H](C)CC[C@@H]([C@@H]3C)[C@@]46O5)O[C@@H]3O[C@@]4(C)CC[C@@H]1[C@]32O4` (stereo partly drawn), the GI50 in the experiment on 786-0, in the experiment with A498, in the experiment with BT-549, with CAKI-1, with EKVX and in the experiment with HCT-116 was > 100 µM (inactive) each time. Moreover, the GI50 in the experiment with HT-29, in the experiment with MCF7, with MOLT-4, with NCI-H226, with NCI-H23 and with NCI-H522 was > 100 µM (inactive) in each case. Also, the GI50 in the experiment on OVCAR-4, in the experiment on OVCAR-8, in the experiment on RPMI-8226, with SK-MEL-28, with SNB-75 and in the experiment with TK-10 was > 100 µM (inactive) throughout. The GI50 in the experiment on U-251 was > 100 µM (inactive).
